Source: ChEMBL document CHEMBL1134689, “Novel C-terminus modifications of the Dmt-Tic motif: a new class of dipeptide analogues showing altered pharmacological profiles toward the opioid receptors” (J Med Chem, 2001)
Calls of active or inactive are those of the source. No cut-off for these calls is given here.

Experiments:
[1] = target: T1, Delta-type opioid receptor (Homo sapiens, UniProt P41143); experiment: Binding affinity at cloned human delta-opioid receptor
[2] = target: T2, Kappa-type opioid receptor (Homo sapiens, UniProt P41145); experiment: Binding affinity at cloned human opioid receptor kappa 1
T2 sequence (P41145 whole entry): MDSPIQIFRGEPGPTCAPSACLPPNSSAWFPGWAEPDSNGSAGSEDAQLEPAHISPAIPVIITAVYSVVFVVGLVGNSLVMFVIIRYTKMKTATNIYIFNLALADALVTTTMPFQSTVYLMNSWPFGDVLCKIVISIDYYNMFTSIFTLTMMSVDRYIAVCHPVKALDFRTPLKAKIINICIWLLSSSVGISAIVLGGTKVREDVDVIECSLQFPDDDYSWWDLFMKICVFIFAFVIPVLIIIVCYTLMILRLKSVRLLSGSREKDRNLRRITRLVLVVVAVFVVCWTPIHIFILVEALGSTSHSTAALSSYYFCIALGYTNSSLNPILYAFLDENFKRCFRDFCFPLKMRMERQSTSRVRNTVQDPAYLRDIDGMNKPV

[3] = target: T1, Delta-type opioid receptor; experiment: Agonist potency using GTP-gamma [35S]- binding assay for delta-opioid receptor; Inactive
Mu-type opioid receptor [4] = target: T3, Mu-type opioid receptor (Homo sapiens, UniProt P35372); experiment: Binding affinity at cloned human mu-opioid receptor
T3 sequence (P35372 whole entry): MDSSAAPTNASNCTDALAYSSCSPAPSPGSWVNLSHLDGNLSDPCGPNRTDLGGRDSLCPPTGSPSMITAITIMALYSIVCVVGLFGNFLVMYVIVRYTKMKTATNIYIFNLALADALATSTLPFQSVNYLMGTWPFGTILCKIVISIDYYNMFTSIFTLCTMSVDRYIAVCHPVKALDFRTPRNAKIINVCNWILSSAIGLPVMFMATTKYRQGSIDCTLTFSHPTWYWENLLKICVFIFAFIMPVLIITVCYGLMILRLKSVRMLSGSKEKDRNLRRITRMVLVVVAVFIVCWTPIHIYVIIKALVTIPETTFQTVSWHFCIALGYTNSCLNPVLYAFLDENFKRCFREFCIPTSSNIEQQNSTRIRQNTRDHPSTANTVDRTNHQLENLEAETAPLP

Mu-type opioid receptor [5] = target: T3, Mu-type opioid receptor; experiment: Agonist potency using GTP-gamma [35S]- binding assay for mu-opioid receptor; Inactive
[6] = target: T2, Kappa-type opioid receptor; experiment: Compound was tested for maximum stimulation of opioid receptor kappa 1 by GTP-gamma [35S]- binding assay
[7] = target: T2, Kappa-type opioid receptor; experiment: Agonist potency using GTP-gamma [35S]- binding assay for opioid receptor kappa 1
[8] = target: T1, Delta-type opioid receptor; experiment: Agonist potency using GTP-gamma [35S]- binding assay for delta-opioid receptor
Mu-type opioid receptor [9] = target: T3, Mu-type opioid receptor; experiment: Agonist potency using GTP-gamma [35S]- binding assay for mu-opioid receptor
[10] = target: T2, Kappa-type opioid receptor

T1 sequence (P41143 whole entry): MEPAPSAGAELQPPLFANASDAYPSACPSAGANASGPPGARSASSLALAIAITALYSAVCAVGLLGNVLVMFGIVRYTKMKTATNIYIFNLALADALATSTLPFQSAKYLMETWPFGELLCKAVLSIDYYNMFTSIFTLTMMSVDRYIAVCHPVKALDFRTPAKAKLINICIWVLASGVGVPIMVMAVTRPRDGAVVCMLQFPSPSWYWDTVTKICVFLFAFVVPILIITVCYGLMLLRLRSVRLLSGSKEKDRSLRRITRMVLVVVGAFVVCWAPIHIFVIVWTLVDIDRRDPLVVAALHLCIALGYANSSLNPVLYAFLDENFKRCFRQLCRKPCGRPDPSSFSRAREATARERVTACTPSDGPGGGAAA

Row | Structure (SMILES) | IC50 [1] [nM] | IC50 [2] [nM] | NA [3] | IC50 (Mu-type opioid receptor [4]) [nM] | NA (Mu-type opioid receptor [5]) | Emax [6] [%] | EC50 [7] [nM] | EC50 [8] [nM] | EC50 (Mu-type opioid receptor [9]) [nM] | NA [10]
1 | C=CCOC[C@@H]1Cc2ccccc2CN1C(=O)[C@@H](N)Cc1c(C)cc(O)cc1C | 0.98 | 1450 | inactive | 108 |  |  |  |  |  | 
2 | Cc1cc(O)cc(C)c1C[C@H](N)C(=O)N1Cc2ccccc2C[C@H]1CN | 4.9 | 521 | inactive | 113 |  |  |  |  |  | 
3 | CC(=O)OC[C@@H]1Cc2ccccc2CN1C(=O)[C@@H](N)Cc1c(C)cc(O)cc1C | 1.1 | 3100 | inactive | 4.7 | inactive |  |  |  |  | 
4 | Cc1cc(O)cc(C)c1C[C@H](N)C(=O)N1Cc2ccccc2C[C@H]1CNC(=O)NC12CC3CC(CC(C3)C1)C2 | 0.29 | 4.1 | inactive | 1.1 | inactive | 81.7 | 11.5 |  |  | 
5 | Cc1cc(O)cc(C)c1C[C@H](N)C(=O)N1Cc2ccccc2C[C@H]1CO | 2 | > 10000 | inactive | 421 | inactive |  |  |  |  | 
6 | CCNC(=O)NC[C@@H]1Cc2ccccc2CN1C(=O)[C@@H](N)Cc1c(C)cc(O)cc1C | 0.99 | 321 |  | 169 |  |  |  | 5.7 |  | 
7 | Cc1cc(O)cc(C)c1C[C@H](N)C(=O)N1Cc2ccccc2C[C@H]1CNC(=O)C(C)(C)C | 0.79 | 394 | inactive | 25.3 |  |  |  |  |  | 
8 | Cc1cc(O)cc(C)c1C[C@H](N)C(=O)N1Cc2ccccc2C[C@H]1CNCc1ccccc1 | 0.41 | 1.5 |  | 0.65 |  | 100 | 6.8 | 0.92 | 37.1 | 
9 | CC(=N)NC[C@@H]1Cc2ccccc2CN1C(=O)[C@@H](N)Cc1c(C)cc(O)cc1C | 9.9 | 996 |  | 33.2 |  |  |  |  |  | 
10 | Cc1cc(O)cc(C)c1C[C@H](N)C(=O)N1Cc2ccccc2C[C@H]1CNCC(C)(C)C | 0.99 | 1.5 |  | 1.3 | inactive | 102 | 1.4 | 2.8 |  | 
11 | Cc1cc(O)cc(C)c1C[C@H](N)C(=O)N1Cc2ccccc2C[C@H]1CN=[N+]=[N-] | 1.1 | 1070 |  | 94.6 |  |  |  | 49.4 |  | 
12 | Cc1cc(O)cc(C)c1C[C@H](N)C(=O)N1Cc2ccccc2C[C@H]1C/N=C(/S)NC(C)(C)C |  |  |  |  |  | 99.6 |  |  |  | 
13 | Cc1cc(O)cc(C)c1C[C@H](N)C(=O)N1Cc2ccccc2C[C@H]1CN=C(N)N | 3.2 | 345 |  | 12.8 |  |  |  |  |  | 
14 | CC(C)[C@H](NC(=O)[C@H](CC(=O)O)NC(=O)[C@H](Cc1ccccc1)NC(=O)[C@@H](C)NC(=O)[C@@H](N)Cc1ccc(O)cc1)C(=O)N[C@H](C(=O)NCC(N)=O)C(C)C |  |  |  |  |  |  |  |  |  | inactive
15 | Cc1cc(O)cc(C)c1C[C@H](N)C(=O)N1Cc2ccccc2C[C@H]1CNC(=S)NC(C)(C)C | 0.22 | 2.8 |  | 36 |  |  | 24.3 | 0.32 |  | 
16 | COC[C@@H]1Cc2ccccc2CN1C(=O)[C@@H](N)Cc1c(C)cc(O)cc1C | 1.3 | 2510 | inactive | 458 |  |  |  |  |  | 
17 | Cc1cc(O)cc(C)c1C[C@H](N)C(=O)N1Cc2ccccc2C[C@H]1CNC(=O)c1ccccc1 | 0.24 | 307 | inactive | 0.98 |  |  |  |  | 109 | 
18 | CC(=O)NC[C@@H]1Cc2ccccc2CN1C(=O)[C@@H](N)Cc1c(C)cc(O)cc1C | 0.79 | 9380 |  | 16.1 |  |  |  | 1.5 |  | 
19 | Cc1cc(O)cc(C)c1C[C@H](N)C(=O)N1Cc2ccccc2C[C@H]1C | 1.7 | 764 | inactive | 3 |  |  |  |  |  | 
20 | Cc1cc(O)cc(C)c1C[C@H](N)C(=O)N1Cc2ccccc2C[C@H]1COCc1ccccc1 | 0.33 | 64.6 |  | 12.5 | inactive |  |  | 0.97 |  | 
21 | Cc1cc(O)cc(C)c1C[C@H](N)C(=O)N1Cc2ccccc2C[C@H]1CNC(=S)Nc1ccccc1 | 0.27 | 51.4 |  | 5.4 |  |  |  | 1.7 |  | 
22 | Cc1cc(O)cc(C)c1C[C@H](N)C(=O)N1Cc2ccccc2C[C@H]1CNC(=O)Nc1ccccc1 | 0.13 | 4.8 |  | 1 |  | 81.7 | 161 | 0.75 | 18.8 | 
23 | Cc1cc(O)cc(C)c1C[C@H](N)C(=O)N1Cc2ccccc2C[C@H]1CNC(=O)NC(C)(C)C | 0.17 | 1.3 |  | 61.8 | inactive | 96.9 | 6.9 | 0.65 |  | 
24 | Cc1cc(O)cc(C)c1C[C@H](N)C(=O)N1Cc2ccccc2C[C@H]1CN(C)C | 0.97 | 793 | inactive | 83.2 |  |  |  |  |  | 
